The results in this text go back to patent US7728019B2, “Biphenylcarboxamides” (priority 2002, dated 2010).

SMILES strings stand for the structures.

One may read the chromatographic logP as a lipophilicity value derived from retention on a column.

The first series deals with Botrytis cinerea. Kind of series: Botrytis test (bean)/protective. It is filed as in vivo. Particulars: 48 h, bean plants, protective, application rate 500 g/ha, evaluation 2 days after inoculation, read-out: Efficacy in %. The method, then: To produce a suitable preparation of active compound, 1 part by weight of active compound is mixed with the stated amounts of solvents and emulsifier, and the concentrate is diluted with water to the desired concentration.
To test for protective activity, young plants are sprayed with the preparation of active compound at the stated application rate. After the spray coating has dried on, 2 small pieces of agar colonized by Botrytis cinerea are placed onto each leaf. The inoculated plants are placed in a dark chamber at about 20° C. and 100% relative atmospheric humidity.
2 days after the inoculation, the size of the infected areas on the leaves is evaluated. 0% means an efficacy which corresponds to that of the control, whereas an efficacy of 100% means that no infection is observed.
Take `O=C(Nc1ccccc1-c1ccc(/C=N\OCC2CC2)cc1)c1cccnc1Cl` [Compound 3]: the pest or weed control at 500 g/ha came out at 95%.

System in a further series: not listed separately
Put plainly: logP determination by HPLC on reverse-phase column (C 18), acidic range pH 2.3. It is filed as physicochemical. Particulars: HPLC, C 18 reverse-phase, 43° C. The method, then: The logP values given in Table 1 were determined with EEC Directive 79/831 Annex V.A8 by HPLC (High Performance Liquid Chromatography) on a reverse-phase column (C 18). Temperature: 43° C. Mobile phases for the determination in the acidic range (pH 2.3): 0.1% aqueous phosphoric acid, acetonitrile; linear gradient from 10% acetonitrile to 90% acetonitrile. Calibration was carried out using unbranched alkan-2-ones (having 3 to 16 carbon atoms) with known logP values (determination of the logP values by the retention times using linear interpolation between two successive alkanones).
Consider `C#CCO/N=C(\C)c1ccc(-c2ccccc2NC(=O)c2ccccc2Cl)cc1` [Compound 81], for which the “logP (pH 2.3)” value was determined as 3.73.

On to `C=C(C)CO/N=C(/C)c1ccc(-c2ccccc2NC(=O)c2cn(C)nc2C(F)(F)F)cc1` [Compound 48], for which the “logP (pH 2.3)” value came to 4.14.

With `C=C(C)CO/N=C(/C)c1ccc(-c2ccccc2NC(=O)c2ccoc2C)cc1` [Compound 51], the “logP (pH 2.3)” value is on record as 4.51.

On to `C=C(C)CO/N=C(/C)c1ccc(-c2ccccc2NC(=O)c2ccccc2C(F)(F)F)cc1` [Compound 58], for which the “logP (pH 2.3)” value is reported as 4.64.

For the compound `C#CCO/N=C(\C)c1ccc(-c2ccccc2NC(=O)c2cn(C)cc2C(F)(F)F)cc1` [Compound 75], the “logP (pH 2.3)” value was determined as 3.6.

For the compound `C#CCO/N=C(\C)c1ccc(-c2ccccc2NC(=O)c2ccoc2C)cc1` [Compound 77], the “logP (pH 2.3)” value is 3.59.

With `C=CCO/N=C(/C)c1ccc(-c2ccccc2NC(=O)c2ccoc2C)cc1` [Compound 38], the “logP (pH 2.3)” value amounted to 4.14.

In the case of `C=CC(C)O/N=C(/C)c1ccc(-c2ccccc2NC(=O)c2ccoc2C)cc1` (stereo not shown) [Compound 47], the “logP (pH 2.3)” value worked out at 4.52.

In the case of `C/C(=N/OCC=C(Cl)Cl)c1ccc(-c2ccccc2NC(=O)c2ccoc2C)cc1` [Compound 61], the “logP (pH 2.3)” value came out at 4.98.

As to `C#CCO/N=C(\C)c1ccc(-c2ccccc2NC(=O)c2ccccc2I)cc1` [Compound 79], the “logP (pH 2.3)” value was 3.81.

Regarding `C#CCO/N=C(\C)c1ccc(-c2ccccc2NC(=O)c2cccnc2Cl)cc1` [Compound 68], the “logP (pH 2.3)” value is recorded as 3.16.

As for `CC#CCO/N=C(/C)c1ccc(-c2ccccc2NC(=O)c2ccoc2C)cc1` [Compound 50], the “logP (pH 2.3)” value came out at 3.95.

With `C#CCO/N=C(\C)c1ccc(-c2ccccc2NC(=O)c2ccccc2C(F)(F)F)cc1` [Compound 73], the “logP (pH 2.3)” value is given as 3.83.

`C=CC(C)O/N=C(/C)c1ccc(-c2ccccc2NC(=O)c2cn(C)nc2C(F)(F)F)cc1` (stereo not shown) [Compound 46]: the “logP (pH 2.3)” value was 4.15.

As for `C#CCO/N=C/c1ccc(-c2ccccc2NC(=O)c2sc(C)nc2C(F)(F)F)cc1` [Compound 83], the “logP (pH 2.3)” value was determined as 3.48.

On to `CC#CCO/N=C(/C)c1ccc(-c2ccccc2NC(=O)c2c(C)nn(C)c2F)cc1` [Compound 37], for which the “logP (pH 2.3)” value is 3.63.

Consider `C=CC(C)O/N=C(/C)c1ccc(-c2ccccc2NC(=O)c2cccnc2Cl)cc1` (stereo not shown) [Compound 42], for which the “logP (pH 2.3)” value came out at 2.89.

As for `C#CCO/N=C(\C)c1ccc(-c2ccccc2NC(=O)c2cn(C)nc2C(F)(F)F)cc1` [Compound 70], the “logP (pH 2.3)” value was 3.36.

With `C=CC(C)O/N=C(/C)c1ccc(-c2ccccc2NC(=O)c2cn(C)nc2C)cc1` (stereo not shown) [Compound 53], the “logP (pH 2.3)” value came to 3.53.

`C=C(C)CO/N=C(/C)c1ccc(-c2ccccc2NC(=O)c2sc(C)nc2C(F)(F)F)cc1` [Compound 44]: the “logP (pH 2.3)” value is reported as 3.49.

Take `C=CC(C)O/N=C(/C)c1ccc(-c2ccccc2NC(=O)c2cn(C)cc2C(F)(F)F)cc1` (stereo not shown) [Compound 57]: the “logP (pH 2.3)” value is 4.41.

On to `C/C(=N/OCC=C(Cl)Cl)c1ccc(-c2ccccc2NC(=O)c2sc(C)nc2C(F)(F)F)cc1` [Compound 62], for which the “logP (pH 2.3)” value is listed as 3.81.

For the compound `CC#CCO/N=C(/C)c1ccc(-c2ccccc2NC(=O)c2cccnc2Cl)cc1` [Compound 41], the “logP (pH 2.3)” value is given as 3.48.

Turning to `C#CCO/N=C(\C)c1ccc(-c2ccccc2NC(=O)c2sc(C)nc2C(F)(F)F)cc1` [Compound 67], the “logP (pH 2.3)” value is 3.72.

`C=CC(C)O/N=C(/C)c1ccc(-c2ccccc2NC(=O)c2ccccc2C(F)(F)F)cc1` (stereo not shown) [Compound 59]: the “logP (pH 2.3)” value is 4.65.

For `C#CCO/N=C/c1ccc(-c2ccccc2NC(=O)c2cccnc2Cl)cc1` [Compound 82], the “logP (pH 2.3)” value is given as 2.92.

With `C=C(C)CO/N=C(/C)c1ccc(-c2ccccc2NC(=O)c2c(C)nn(C)c2F)cc1` [Compound 36], the “logP (pH 2.3)” value was 4.18.

For `C=C(C)CO/N=C(/C)c1ccc(-c2ccccc2NC(=O)c2cccnc2Cl)cc1` [Compound 60], the “logP (pH 2.3)” value was found to be 3.95.

Turning to `C#CCO/N=C(\C)c1ccc(-c2ccccc2NC(=O)c2cn(C)nc2C)cc1` [Compound 78], the “logP (pH 2.3)” value is 2.75.

For `C=CCO/N=C(/C)c1ccc(-c2ccccc2NC(=O)C2=C(C)OCCS2)cc1` [Compound 39], the “logP (pH 2.3)” value amounted to 4.38.

On to `C=C(C)CO/N=C(/C)c1ccc(-c2ccccc2NC(=O)c2cn(C)nc2C)cc1` [Compound 52], for which the “logP (pH 2.3)” value came to 3.52.

Regarding `C#CCO/N=C(\C)c1ccc(-c2ccccc2NC(=O)C2=C(C)OCCS2)cc1` [Compound 74], the “logP (pH 2.3)” value came to 3.81.

On to `C#CCO/N=C(\C)c1ccc(-c2ccccc2NC(=O)c2c(C)nn(C)c2F)cc1` [Compound 71], for which the “logP (pH 2.3)” value was 3.27.

As to `C#CCO/N=C(\C)c1ccc(-c2ccccc2NC(=O)c2ccccc2Br)cc1` [Compound 80], the “logP (pH 2.3)” value was 3.74.

Still in this series, the particulars now being: reverse-phase HPLC column (C 18).
In turn, `C/C(=N\OCC=C(Cl)Cl)c1ccc(-c2ccccc2NC(=O)c2cn(C)nc2C)cc1` [Compound 54, N-(4′-{1-[3,3-dichloroallyloxyimino]ethyl}biphenyl-2-yl)-1,3-dimethyl-1H-pyrazole-4-carboxamide] returned a chromatographic logP of 3.97.

For `CC(=O)c1ccc(-c2ccccc2NC(=O)c2cccnc2Cl)cc1` [VIII-1, N-(4′-acetyl-biphenyl-2-yl)-2-chloronicotinamide], the chromatographic logP was determined as 2.12.

For the compound `C/C(=N/OCC=C(Cl)Cl)c1ccc(-c2ccccc2NC(=O)c2cccnc2Cl)cc1` [Compound 63, 2-chloro-N-{4′-[1-(3,3-dichloroallyloxyimino)ethyl]-biphenyl-2-yl}nicotinamide], the chromatographic logP was found to be 4.43.

`C=CCO/N=C(\C)c1ccc(-c2ccccc2NC(=O)c2c(C)nn(C)c2F)cc1` [Compound 17, N-(4′-{1-(allyloxyimino)-ethyl}-biphenyl-2-yl)-5-fluoro-1,3-dimethyl-1H-pyrazole-4-carboxamide] gave a chromatographic logP of 3.8.

The compound `CC(=O)c1ccc(-c2ccccc2N)cc1` [XIV-1, 1-(2′-aminobiphenyl-4-yl)ethanone] registered a chromatographic logP of 1.8.

Staying with this series, now noted: reverse-phase HPLC column (C 18), HPLC, C 18 reverse-phase, 43° C.
The compound `CC#CCO/N=C(/C)c1ccc(-c2ccccc2NC(=O)c2cn(C)nc2C)cc1` [Compound 55] displayed a chromatographic logP of 3.06.

In turn, `CC#CCO/N=C(/C)c1ccc(-c2ccccc2NC(=O)c2cn(C)nc2C(F)(F)F)cc1` [Compound 40] gave a chromatographic logP of 3.67.

For `C#CCO/N=C(/C)c1ccc(-c2ccccc2NC(=O)c2cn(C)nc2C(F)F)cc1` [Compound 72], the chromatographic logP is 3.14.

As to `O=C(Nc1ccccc1-c1ccc(/C=N\OCC2CC2)cc1)c1cccnc1Cl` [Compound 3], the chromatographic logP came out at 3.57.

Compound `C#CCO/N=C(/C)c1ccc(-c2ccccc2NC(=O)c2sc(C)nc2C(F)F)cc1` [Compound 69] registered a chromatographic logP of 3.45.

A further series has as its system Puccinia recondita. Kind of series: Puccinia test (wheat)/protective. It is filed as in vivo. Particulars: 240 h, wheat plants, protective, application rate 500 g/ha, evaluation 10 days after inoculation, read-out: Efficacy in %. The method, then: To produce a suitable preparation of active compound, 1 part by weight of active compound is mixed with the stated amounts of solvent and emulsifier, and the concentrate is diluted with water to the desired concentration.
To test for protective activity, young plants are inoculated with a spore suspension of Puccinia recondita in a 0.1% strength aqueous agar solution. After the spray coating has dried on, the plants are sprayed with the preparation of active compound at the stated application rate. The plants remain in an incubation cabin at 20° C. and 100% relative atmospheric humidity for 24 hours.
The plants are then placed in a greenhouse at a temperature of about 20° C. and a relative atmospheric humidity of 80% to promote the development of rust pustules.
Evaluation is carried out 10 days after the inoculation. 0% means an efficacy which corresponds to that of the control, whereas an efficacy of 100% means that no infection is observed.
Consider `CC#CCO/N=C(/C)c1ccc(-c2ccccc2NC(=O)c2cn(C)nc2C)cc1` [Compound 55], for which the pest or weed control at 500 g/ha was 100%.

`CC#CCO/N=C(/C)c1ccc(-c2ccccc2NC(=O)c2cn(C)nc2C(F)(F)F)cc1` [Compound 40]: the pest or weed control at 500 g/ha came out at 100%.

Turning to `C#CCO/N=C(/C)c1ccc(-c2ccccc2NC(=O)c2cn(C)nc2C(F)F)cc1` [Compound 72], the pest or weed control at 500 g/ha was 100%.

Take `C#CCO/N=C(/C)c1ccc(-c2ccccc2NC(=O)c2sc(C)nc2C(F)F)cc1` [Compound 69]: the pest or weed control at 500 g/ha worked out at 100%.
